Assay results: patent publication US11013696B2, “Lipids and lipid compositions for the delivery of active agents” (Novartis AG, priority 2013, dated 2021)

How the values were obtained:
Assay type in all cases: physicochemical
[1] = Percent encapsulation of plasmid DNA in lipid nanoparticles (Quant-iT Ribogreen)
Description: All equipment and disposable supplies are certified free of RNase activity by the manufacturer or rendered RNase free by use of the RNaseZap reagent (LifeTechnologies). Plasmid is encapsulated at a cationic lipid amine to DNA phosphate (N:P) molar ratio of 4:1. Lipids (cationic lipid, DSPC, cholesterol and lipidated PEG) are dissolved in ethanol. The molar ratios are 40:10:38:2, respectively. The mixture is sonicated briefly, then gently agitated for 5 minutes and then maintained at 37° C. until use. Plasmid is exchanged into citrate buffer pH 6.0 by use of Amicon Ultra-15 centrifugal concentrators, and the final concentration is adjusted to 0.053 mg/ml and held at 37° C. until use. An equal volume of lipids in ethanol, plasmid in citrate buffer, and citrate buffer alone are drawn into disposable syringes. Tubing leading from syringes containing lipids and DNA are attached to the T junction, and tubing leading from the syringe containing citrate buffer alone is paired with the tubing exiting the T-junction over a collection vessel containing a stir bar on an active stir plate. Syringes are placed in a syringe pump set to expel contents at a flow rate of 1 ml per minute. The pump is activated, and the collected DNA in lipid nanoparticles is transferred to SnakeSkin dialysis tubing (10,000 MWCO, Thermo Scientific). Material is dialyzed against RNAse- and pyrogen-free 1× phosphate buffered saline overnight at 4° C.
Percent encapsulation of plasmid DNA in lipid nanoparticles is determined using the Quant-iT Ribogreen RNA Assay kit (Life Technologies). The LNP-DNA suspension is assayed in buffer (DNA outside the particle), and buffer plus Triton X-100 detergent (total DNA). The difference calculated is the DNA inside the particle. Prepare a 1000 ng/mL stock using unpackaged plasmid and use this to generate a standard curve (0 ng/ml, 15.63-1000 ng/ml) in TE and TE+0.75% Triton X-100. Prepare LNP-plasmid samples in TE buffer and TE buffer+0.75% Triton X-100 with appropriate dilution so that reading is in the range of standard curve (25 fold). In a 384-well plate (Costar non-treated #3573) add 0.04 ml of standard (in duplicate) or sample (in triplicate) per well. Dilute Ribogreen reagent 240-fold in TE buffer and add 0.06 ml per well. Mix contents of wells and measure fluorescence (excitation=480 nm, emission=520 nm). Subtract background values (no DNA) from standard and test sample values and determine the concentrations of DNA in the samples using the standard curves. Determine the percent encapsulation of the sample by dividing the difference in concentrations between sample+triton and sample in buffer alone by the sample+triton concentration.

[2] = Entrapment and RNA concentration of RSV-F replicon liposomes (Quant-iT RiboGreen)
Description: RNA was encapsulated in liposomes made essentially by the method of Geall et al. (2012) PNAS vol. 109 (36): 14604-14609, Jeffs et al. (2005) Pharmaceutical Research 22 (3):362-372 and Maurer et al. (2001) Biophysical Journal, 80: 2310-2326 The liposomes were made of 10% DSPC (zwitterionic), 40% cationic lipid, 48% cholesterol and 2% PEG-conjugated DMG (2 kDa PEG). These proportions refer to the % moles in the total liposome.
Briefly, lipids were dissolved in ethanol (2 ml), a RNA replicon was dissolved in buffer (2 ml, 100 mM sodium citrate, pH 6) and these were mixed with 2 ml of buffer followed by 1 hour of equilibration. The mixture was then dialized overnight against 1×PBS. The resulting product contained liposomes, with ˜70-95% encapsulation efficiency. For in vitro and in vivo experiments formulations were diluted to the required RNA concentration with 1×PBS.
The percentage of encapsulated RNA and RNA concentration were determined by Quant-iT RiboGreen RNA reagent kit (Invitrogen), following manufacturer's instructions. The ribosomal RNA standard provided in the kit was used to generate a standard curve. Liposomes were diluted 10× or 100× in 1×TE buffer (from kit) before addition of the dye. Separately, liposomes were diluted 10× or 100× in 1×TE buffer containing 0.5% Triton X before addition of the dye (to disrupt the liposomes and thus to assay total RNA). Thereafter an equal amount of dye was added to each solution and then ˜180 μL of each solution after dye addition was loaded in duplicate into a 96 well tissue culture plate. The fluorescence (Ex 485 nm, Em 528 nm) was read on a microplate reader. All liposome formulations were dosed in vivo based on the encapsulated amount of RNA.
(§1) A self-replicating replicon encoding RSV F protein was administered to BALB/c mice, 8 animals per group, by bilateral intramuscular vaccinations (50 μL per leg) on days 0 and 21 with the replicon (0.1 and 1 ng) formulated as liposomes with the lipids described below. All liposomes tested were composed of 40% cationic lipid, 10% DSPC, 48% cholesterol and 2% PEG-DMG with similar amounts of RNA. The liposomes were all prepared using the same technique as described above.
(§2) % entrapment (% E), Concentration of RNA (Conc), particle size measured by DLS, and polydispersity reported by DLS of LNPs prepared with different cationic lipids

[3] = Particle size and polydispersity by DLS of RSV-F replicon LNPs
Description: as §1, §2

[4] = RSV-F replicon LNP prepared for 1st IM
[5] = RSV-F replicon LNP prepared for 2nd IM

Compound: CCCCCCCCCCCCC(CCOC(=O)CCCCC(OCCCCCCCC)OCCCCCCCC)OC(=O)OCCCN(CC)CC (stereo not drawn) [Example 16, 3-(((3-(diethylamino)propoxy)carbonyl)oxy)pentadecyl 6,6-bis(octyloxy)hexanoate]
- % Encap. ([1]; hLep plasmid): 96.7%
- % Encap. ([1]; pDNA): 96.4%

Compound: CCCCCCCCCCCCC(CCOC(=O)CCCCC(OCC(CC)CCCC)OCC(CC)CCCC)OC(=O)OCCCN(CC)CC (stereo not drawn) [Example 18, 3-(((3-(diethylamino)propoxy)carbonyl)oxy)pentadecyl 6,6-bis((2-ethylhexyl)oxy)hexanoate]
- % E (% entrapment) [2, 4]: 96.15%
- % E (% entrapment) [2, 5]: 96.25%
- PDI [3, 4]: 0.13
- Size [3, 4]: 132.2 nm
- PDI [3, 5]: 0.065
- Size [3, 5]: 139.8 nm

Compound: CCCCC/C=C\C/C=C\CCCCCCCCC(CCC(=O)OC(COC(=O)CCCCCCC)COC(=O)CCCCCCC)OC(=O)OCCCN(C)C (stereo not drawn) [Example 94, 2-(((13Z,16Z)-4-(((3-(dimethylamino)propoxy)carbonyl)oxy)docosa-13,16-dienoyl)oxy)propane-1,3-diyl dioctanoate]
- % Encap. ([1]; hLep plasmid): 95.0%
- % Encap. ([1]; pDNA): 89.3%

Compound: CCCCCCCCCC(=O)OCCC(CC(CCCCCCCC)CCCCCCCC)OC(=O)OCCCN(C)C (stereo not drawn) [Example 70, 3-(((3-(dimethylamino)propoxy)carbonyl)oxy)-5-octyltridecyl decanoate]
- % E (% entrapment) [2, 4]: 90.75%
- % E (% entrapment) [2, 5]: 94.24%
- PDI [3, 4]: 0.121
- Size [3, 4]: 133.7 nm
- PDI [3, 5]: 0.118
- Size [3, 5]: 141.7 nm

Compound: CCCCCCCCCCCCC(CCOC(=O)CCCCC(COC(=O)CCCCCCC)COC(=O)CCCCCCC)OC(=O)OCCCN(CC)CC (stereo not drawn) [Example 1, 2-(10-dodecyl-3-ethyl-8,14-dioxo-7,9,13-trioxa-3-azaoctadecan-18-yl)propane-1,3-diyl dioctanoate]
- % Encap. ([1]; hLep plasmid): 93.5%
- % Encap. ([1]; pDNA): 94.3%
- % E (% entrapment) [2, 4]: 91.11%
- % E (% entrapment) [2, 5]: 87.13%
- PDI [3, 4]: 0.105
- Size [3, 4]: 139.1 nm
- PDI [3, 5]: 0.045
- Size [3, 5]: 131.3 nm
